Assay results published in patent US7199148B2, “Broadspectrum substituted oxindole sulfonamide HIV protease inhibitors” (priority 2002, dated 2007).
Like-named read-outs stand apart in the source and are kept apart here.

Tests used:
Assay type in all cases: cell-based
[1] = Toxicity on mock-infected MT4 cells (MTT); conditions: human
Protocol: (§1) HIV- or mock-infected MT4 cells were incubated for five days in the presence of various concentrations of the inhibitor. At the end of the incubation period, all HIV-infected cells have been killed by the replicating virus in the control cultures in the absence of any inhibitor. Cell viability is measured by measuring the concentration of MTT, a yellow, water soluble tetrazolium dye that is converted to a purple, water insoluble formazan in the mitochondria of living cells only. Upon solubilization of the resulting formazan crystals with isopropanol, the absorbance of the solution is monitored at 540 nm. The values correlate directly to the number of living cells remaining in the culture at the completion of the five day incubation. The inhibitory activity of the compound was monitored on the virus-infected cells and was expressed as EC50 and EC90. These values represent the amount of the compound required to protect 50% and 90%, respectively, of the cells from the cytopathogenic effect of the virus. The toxicity of the compound was measured on the mock-infected cells and was expressed as CC50, which represents the concentration of compound required to inhibit the growth of the cells by 50%. The selectivity index (SI) (ratio CC50/EC50) is an indication of the selectivity of the anti-HIV activity of the inhibitor. Wherever results are reported as e.g. pEC50 or pCC50 values, the result is expressed as the negative logarithm of the result expressed as EC50 or CC50 respectively.
(§2) As a measure of the broad spectrum activity of the present compounds, the fold resistance (FR), defined as FR=EC50(mutant strain)/EC50(HIV-1 strain LAI), was determined.

HIV strain C = experiment: Antiviral spectrum, clinically isolated mutant strain C; conditions: FR=EC50(mutant strain)/EC50(HIV-1 strain LAI)
Protocol: as §1
(§3) Because of the increasing emergence of drug resistant HIV strains, the present compounds were tested for their potency against clinically isolated HIV strains harboring several mutations (Table 2 and 3). These mutations are associated with resistance to protease inhibitors and result in viruses that show various degrees of phenotypic cross-resistance to the currently commercially available drugs such as for instance saquinavir, ritonavir, nelfinavir, indinavir and amprenavir.
as §2

HIV-1 strain LAI = experiment: Cellular anti-HIV assay, MT4 cells, MTT read-out, wild type strain
Protocol: as §1, with “The compounds of the present invention were examined for anti-viral activity in a cellular assay. […] The cellular assay was performed according to the following procedure. HIV- or” for “HIV- or”

HIV strain D = experiment: Antiviral spectrum, clinically isolated mutant strain D; conditions: FR=EC50(mutant strain)/EC50(HIV-1 strain LAI)
Protocol: as §1, §3, §2

HIV strain A = experiment: Antiviral spectrum, clinically isolated mutant strain A; conditions: FR=EC50(mutant strain)/EC50(HIV-1 strain LAI)
Protocol: as §1, §3, §2

HIV strain E = experiment: Antiviral spectrum, clinically isolated mutant strain E; conditions: FR=EC50(mutant strain)/EC50(HIV-1 strain LAI)
Protocol: as §1, §3, §2

HIV strain F = experiment: Antiviral spectrum, clinically isolated mutant strain F; conditions: FR=EC50(mutant strain)/EC50(HIV-1 strain LAI)
Protocol: as §1, §3, §2

HIV strain B = experiment: Antiviral spectrum, clinically isolated mutant strain B; conditions: FR=EC50(mutant strain)/EC50(HIV-1 strain LAI)
Protocol: as §1, §3, §2

[2] = Human immunodeficiency virus 1, MT4, Table 3, wild type HIV-LAI strain, read-out: WT (pEC50) (converted)
[3] = Human immunodeficiency virus 1, 120 h, Table 1, MT4 cells, five days incubation, HIV-1 strain LAI, read-out: pEC50 (converted)

| Structure (SMILES) | CC50 at 5 days [1] [nM] | C (FR towards mutant C) (HIV strain C) | EC50 (HIV-1 strain LAI; [2]) [nM] | D (FR towards mutant D) (HIV strain D) | A (FR towards mutant A) (HIV strain A) | E (FR towards mutant E) (HIV strain E) | F (FR towards mutant F) (HIV strain F) | B (FR towards mutant B) (HIV strain B) | EC50 (HIV-1 strain LAI; [3]) [nM] | EC50 (HIV-1 strain LAI; Human immunodeficiency virus 1, MT4, read-out: WT (pEC50) (converted)) [nM] |
| --- | --- | --- | --- | --- | --- | --- | --- | --- | --- | --- |
| CC(C)CN(C[C@@H](O)[C@H](Cc1ccccc1)NC(=O)OC1COC2OCCC12)S(=O)(=O)c1ccc2c(c1)CC(=O)N2 (stereo in doubt) [Compound 21, Hexahydrofuro[2,3-b]furan-3-yl N-(1-benzyl-2-hydroxy-3-{isobutyl[(2-oxo-2,3-dihydro-1H-indol-5-yl)sulfonyl]amino}propyl}carbamate] | 100000 | 0.7 | 158 | 0.33 | 1.0 | 0.56 | 1.2 | 1.1 | – | – |
| CC(C)CN(CC(O)C(Cc1ccccc1)NC(=O)OC1COC2OCCC12)S(=O)(=O)c1ccc2c(c1)C(=Cc1ccc[nH]1)C(=O)N2 (stereo not shown) [Compound 1, (1-Benzyl-2-hydroxy-3-{isobutyl-[2-oxo-3-(1H-pyrrol-2-ylmethylene)-2,3-dihydro-1H-indole-5-sulfonyl]-amino}-propyl)-carbamic acid hexahydrofuro[2,3-b]furan-3-yl ester] | 12600 | 2.1 | 3.16 | 2.0 | 4.3 | 6.2 | 10 | 8.7 | 3.16 | – |
| Cc1ccc(C=C2C(=O)Nc3ccc(S(=O)(=O)N(CC(C)C)CC(O)C(Cc4ccccc4)NC(=O)OC4COC5OCCC45)cc32)o1 (stereo not shown) [Compound 2, (1-Benzyl-2-hydroxy-3-{isobutyl-[3-(5-methyl-furan-2-ylmethylene)-2-oxo-2,3-dihydro-1H-indole-5-sulfonyl]-amino}-propyl)-carbamic acid hexahydro-furo[2,3-b]furan-3-yl ester] | 20000 | 1 | – | 3.8 | 1.7 | 3.1 | 3.9 | 3.6 | 8.51 | 9.77 |
| Cc1ccc(C=C2C(=O)Nc3ccc(S(=O)(=O)N(CC(C)C)CC(O)C(Cc4ccccc4)NC(=O)OC4COC5OCCC45)cc32)s1 (stereo not shown) [Compound 3, (1-Benzyl-2-hydroxy-3-{isobutyl-[3-(5-methyl-thiophen-2-ylmethylene)-2-oxo-2,3-dihydro-1H-indole-5-sulfonyl]-amino}-propyl)-carbamic acid hexahydro-furo[2,3-b]furan-3-yl ester] | 100000 | 2.6 | 12.6 | 3.0 | 3.0 | 7.1 | 6.8 | 3.8 | 11.5 | – |
| CC(C)CN(CC(O)C(Cc1ccccc1)NC(=O)OC1COC2OCCC12)S(=O)(=O)c1ccc2c(c1)C(=Cc1cccn1C)C(=O)N2 (stereo not shown) [Compound 4, (1-Benzyl-2-hydroxy-3-{isobutyl-[3-(1-methyl-1H-pyrrol-2-ylmethylene)-2-oxo-2,3-dihydro-1H-indole-5-sulfonyl]-amino}-propyl)-carbamic acid hexahydro-furo[2,3-b]furan-3-yl ester] | 100000 | 1.7 | 15.8 | 1.9 | 2.3 | 2.4 | 2.0 | 1.9 | 15.5 | – |
| CCC(C=C1C(=O)Nc2ccc(S(=O)(=O)N(CC(C)C)CC(O)C(Cc3ccccc3)NC(=O)OC3COC4OCCC34)cc21)CC (stereo not shown) [Compound 5, (1-Benzyl-3-{[3-(2-ethyl-butylidene)-2-oxo-2,3-dihydro-1H-indole-5-sulfonyl]-isobutyl-amino}-2-hydroxy-propyl)-carbamic acid hexahydro-furo[2,3-b]furan-3-yl ester] | 63100 | 2.0 | 15.8 | 2.0 | 1.9 | 4.2 | 6.5 | 8.3 | 16.6 | – |
| CC(C)C=C1C(=O)Nc2ccc(S(=O)(=O)N(CC(C)C)CC(O)C(Cc3ccccc3)NC(=O)OC3COC4OCCC34)cc21 (stereo not shown) [Compound 6, {1-Benzyl-2-hydroxy-3-[isobutyl-(3-isobutylidene-2-oxo-2,3-dihydro-1H-indole-5-sulfonyl)-amino]-propyl}-carbamic acid hexahydro-furo[2,3-b]furan-3-yl ester] | 50100 | 1.6 | 20 | 1.4 | 2.5 | 2.0 | 7.9 | 7.1 | 19.5 | – |
| CC(C)CN(CC(O)C(Cc1ccccc1)NC(=O)OC1COC2OCCC12)S(=O)(=O)c1ccc2c(c1)/C(=C\c1ccco1)C(=O)N2 (stereo not shown) [Compound 7, Hexahydrofuro[2,3-b]furan-3-yl N-{1-benzyl-3-[({3-[(E)-2-furylmethylidene]-2-oxo-2,3-dihydro-1H-indol-5-yl}sulfonyl) (isobutyl)amino]-2-hydroxypropyl}carbamate] | 79400 | 1.7 | 20 | 2.4 | 1.8 | 5.9 | 1.9 | 2.6 | 19.5 | – |
| COc1ccc(C=C2C(=O)Nc3ccc(S(=O)(=O)N(CC(C)C)CC(O)C(Cc4ccccc4)NC(=O)OC4COC5OCCC45)cc32)cc1 (stereo not shown) [Compound 8, (1-Benzyl-2-hydroxy-3-{isobutyl-[3-(4-methoxy-benzylidene)-2-oxo-2,3-dihydro-1H-indole-5-sulfonyl]-amino}-propyl)-carbamic acid hexahydro-furo[2,3-b]furan-3-yl ester] | 63100 | 1.5 | 20 | 1.5 | 1.7 | 2.0 | 1.7 | 5.0 | 20 | – |
| Cc1ccc(C=C2C(=O)Nc3ccc(S(=O)(=O)N(CC(C)C)CC(OP(=O)(O)O)C(Cc4ccccc4)NC(=O)OC4COC5OCCC45)cc32)o1 (stereo not shown) [Compound 19, (1-Benzyl-3-{isobutyl-[3-(5-methyl-furan-2-ylmethylene)-2-oxo-2,3-dihydro-1H-indole-5-sulfonyl]-amino}-2-phosphonooxy-propyl)-carbamic acid hexahydro-furo[2,3-b]furan-3-yl ester] | – | – | – | – | – | – | – | – | 302 | – |
| CC(C)CN(CC(O)C(Cc1ccccc1)NC(=O)OC1COC2OCCC12)S(=O)(=O)c1ccc2c(c1)C(=Cc1ccc(C(=O)O)cc1)C(=O)N2 (stereo not shown) [Compound 20, 4-(5-{[3-(Hexahydro-furo[2,3-b]furan-3-yloxycarbonylamino)-2-hydroxy-4-phenyl-butyl]-isobutyl-sulfamoyl}-2-oxo-1,2-dihydro-indol-3-ylidenemethyl)-benzoic acid] | – | – | – | – | – | – | – | – | 891 | – |
